Assay results published in patent US8367713B2, “Inhibition and dispersion of bacterial biofilms with imidazole-triazole derivatives” (North Carolina State University, priority 2008, dated 2013).
Counter-ions that a name gives are not always drawn. Like-named read-outs stand apart in the source and are kept apart here.

Legend:
A. baumannii biofilms = assay: Static bacterial biofilm inhibition assay (crystal violet), A. baumannii; type: cell-based, Acinetobacter baumannii; set-up: inhibition of A. baumannii biofilm development: dose or concentration left out as unconfirmed; conditions: for IC50: read-out: IC50 of biofilm inhibition, A. baumannii
Method: (§1) Each 2-AIT conjugate was initially screened at 300 μM for their ability to inhibit P. aeruginosa PAO1 and PA14 biofilms, A. baumannii biofilms and B. bronchiseptica Rb50 biofilms using a crystal violet reporter assay (G. A. O'Toole, R. Kolter, Molecular Microbiology 1998, 2, 295-304). […] This is an order of magnitude increase in activity when compared to DHS (J. J. Richards, R. W. Huigens, T. E. Ballard, A. Basso, J. Cavanagh, C. Melander, Chemical Communications 2008, 14, 1698-1700). […] 6 also dispersed pre-formed A. baumanni biofilms with an EC50 of 400 μM (FIG. 2A).
(§2) General Static Bacterial Biofilm Inhibition Assay Procedure for A. baumannii, P. aeruginosa, B. bronchiseptica and S. aureus: Biofilm inhibition assays were performed by taking an overnight culture of bacterial strain and subculturing it at an OD600 of 0.01 into the necessary growth liquid medium (LB for A. baumannii, LBNS for P. aeruginosa, Stainer Scholte medium that was supplemented with […] of 100× nutrient complex for B. bronchiseptica and TSBG for S. aureus) for the strain. The compound being tested was then added at a predetermined concentration and then aliquoted (100 μL) into the wells of a 96-well PVC microtiter plate (Wells not used for samples are filled with 100 μL of de-ionized water). Plates were then wrapped in GLAD Press n′ Seal® and incubated under stationary conditions at 37° C. After 24 hours, the media was discarded from the wells and the plates were washed thoroughly with tap water. Plates were then stained with 100 μL of 0.1% solution of crystal violet (CV) and then incubated at an ambient temperature for 30 minutes. Sample plates were then washed with tap water again and the remaining stain was solubilized with 200 μl, of 95% ethanol. Biofilm inhibition was quantitated by measuring the OD540 for each well by transferring 125 μL of the solubilized CV stain into a polystyrene microtiter dish for analysis.

MRSA = assay: Biofilm inhibition at 100 μM, MRSA; type: cell-based; conditions: Staphylococcus aureus, biofilm inhibition, 100 μM, read-out: MRSA % Inhibition
Method: Procedure to Determine the Inhibitory Effect of Test Compounds on E. faecium, MRSA, S. epidermidis, PAO1, PA14, E. Coli and MDRAB Biofilm Formation: Inhibition assays were performed by taking an overnight culture of bacterial strain and subculturing it at an OD600 of 0.01 into the necessary media (brain heart infusion for E. faecium, tryptic soy broth with a 0.5% glucose supplement (TSBG) for MRSA, Luria-Bertani (LB) media for MDRAB, Luria-Bertani media without NaCl (LBNS) for PAO1 and PA14, Luria-Bertani (LB) media for E. coli and tryptic soy broth with a 0.5% glucose supplement and a 3.0% NaCl supplement (TGN) for S. epidermidis. Stock solutions of predetermined concentrations of the test compound were then made in the necessary media. These stock solutions were aliquoted (100 μL) into the wells of the 96-well PVC microtiter plate. Sample plates were then wrapped in GLAD Press n′ Seal® followed by an incubation under stationary conditions for 24 h at 37° C. After incubation, the media was discarded from the wells and the plates were washed thoroughly with water. Plates were then stained with 100 μL of 0.1% solution of crystal violet (CV) and then incubated at ambient temperature for 30 min. Plates were washed with water again and the remaining stain was solubilized with 200 μL of 95% ethanol. A sample of 125 μL of solubilized CV stain from each well was transferred to the corresponding wells of a polystyrene microtiter dish. Biofilm inhibition was quantitated by measuring the OD540 of each well in which a negative control lane wherein no biofilm was formed served as a background and was subtracted out.
Biofilm inhibition has been tested for the following compounds, each of which was tested at a concentration of 100 μM.

[1] = tested on: P. aeruginosa PAO1 biofilms; assay: Static bacterial biofilm inhibition assay (crystal violet), PAO1; type: cell-based; conditions: Pseudomonas aeruginosa
Method: as §1, §2

[2] = tested on: P. aeruginosa PA14 biofilms; assay: Static bacterial biofilm inhibition assay (crystal violet), PA14; type: cell-based; conditions: Pseudomonas aeruginosa
Method: as §1, §2

[3] = tested on: B. bronchiseptica Rb50 biofilms; assay: Static bacterial biofilm inhibition assay (crystal violet), Rb50; type: cell-based; conditions: Bordetella bronchiseptica, RB50BIOFILMS
Method: as §1, §2

[4] = tested on: Staphylococcus aureus biofilm; assay: Static bacterial biofilm inhibition assay (crystal violet), S. aureus; type: cell-based
Method: as §2

[5] = tested on: pre-formed A. baumannii biofilms; assay: Static bacterial biofilm dispersion assay, A. baumannii; type: cell-based; conditions: Acinetobacter baumannii
Method: (§3) General Static Bacterial Biofilm Dispersion Assay Procedure for A. baumannii, P. aeruginosa and S. aureus: Dispersion assays were performed by taking an overnight culture of bacterial strain and subculturing it at an OD600 of 0.01 into the necessary growth liquid medium. The resulting bacterial suspension was aliquoted (100 μL) into the wells of a 96-well PVC microtiter plate. Plates were then wrapped in GLAD Press n′ Seal® followed by an incubation under stationary conditions at an ambient temperature. After 24 hours, the media was discarded from the wells and the plates were washed thoroughly with tap water. Predetermined concentrations of the compound were then made in the same medium used to initially grow the biofilms and then aliquoted (100 μL) into the wells of the 96-well PVC microtiter plate with the established biofilms. Plates were then wrapped in GLAD Press n′ Seal® and incubated under stationary conditions at 37° C. After 24 hours, the media was discarded from the wells and the plates were washed thoroughly with tap water. Plates were then stained with 100 μL of 0.1% solution of crystal violet (CV) and then incubated at room temperature for 30 minutes. Plates were then washed with tap water again and the remaining stain was solubilized with 200 μL of 95% ethanol. Biofilm dispersion was quantitated by measuring the OD540 for each well by transferring 125 μL of the solubilized CV stain into a polystyrene microtiter dish for analysis.

[6] = tested on: pre-formed P. aeruginosa PAO1 biofilms; assay: Static bacterial biofilm dispersion assay, PAO1; type: cell-based; conditions: Pseudomonas aeruginosa
Method: as §3

[7] = tested on: pre-formed P. aeruginosa PA14 biofilms; assay: Static bacterial biofilm dispersion assay, PA14; type: cell-based; conditions: Pseudomonas aeruginosa
Method: as §3

[8] = tested on: pre-formed B. bronchiseptica Rb50 biofilms; assay: Static bacterial biofilm dispersion assay, Rb50; type: cell-based; conditions: Bordetella bronchiseptica
Method: as §3
General Static Bacterial Biofilm Dispersion Assay Procedure for B. bronchiseptica: This procedure is identical to the general dispersion procedure described above except that initial biofilm formation in the absence of the test compound was carried out at 37° C.

[9] = tested on: pre-formed S. aureus biofilms; assay: Static bacterial biofilm dispersion assay, S. aureus; type: cell-based; conditions: Staphylococcus aureus
Method: as §3

[10] = tested on: A. baumannii, PAO1, PA14, Rb50, S. aureus (each bacterial strain); assay: Planktonic growth curves and colony counts, each bacterial strain; type: cell-based; conditions: each bacterial strain grown in the presence of compound
Method: The OD600 was recorded at 1, 3, 4, 5, 6 and 24 hours.
General Colony Count Procedure for A. baumannii, P. aeruginosa, B. bronchiseptica and S. aeureus: Colony counts were performed by incubating either bacterial strain in the presence and absence of the test compound at 37° C. in culture tubes until the sample with the absence of the test compound reached an OD600 of 0.40 from a starting OD600 of 0.01. This typically took three to four hours. Once the OD600 of approximately 0.40 was observed, 100 μL were taken from each culture tube from which serial dilutions were made. Then, 10 μL were removed from each serial dilution and plated out on a square gridded petri-dish followed by 16 hours of incubation at 37° C. period (48 hours for B. bronchiseptica) to grow countable colonies. Viable bacteria were quantified through employment of the track-dilution method (Jett et al., Bio Techniques. 1997, 23, 648-650).

With `Nc1ncc[nH]1` [2-Aminomidazole, reference compound] the “activity against A. baumannii biofilm development” value (A. baumannii biofilms; up to 800 μM (highest concentration tested)) was “devoid of activity”.
For `Nc1nc(CCCc2cn(CC(=O)N3CCCC3)nn2)c[nH]1` [2-{4-[3-(2-amino-1H-imidazol-4-yl)-propyl]-[1,2,3]triazol-1-yl}-1-pyrrolidin-1-yl-ethanone hydrochloride], the inhibition at 100 µM (MRSA) was 35.4 ± 5%.
`Nc1nc(CCCc2cn(CC(=O)NCCCc3ccccc3)nn2)c[nH]1` [2-{4-[3-(2-amino-1H-imidazol-4-yl)-propyl]-[1,2,3]triazol-1-yl}-N-(3-phenyl-propyl)-acetamide hydrochloride] showed an inhibition at 100 µM (MRSA) of 64.8 ± 2%.
`COc1ccc(CNC(=O)Cn2cc(CCCc3c[nH]c(N)n3)nn2)cc1` [2-{4-[3-(2-amino-1H-imidazol-4-yl)-propyl]-[1,2,3]triazol-1-yl}-N-(4-methoxy-benzyl)-acetamide hydrochloride] showed an inhibition at 100 µM (MRSA) of 71 ± 3%.
Compound `COc1ccc(NC(=O)Cn2cc(CCCc3c[nH]c(N)n3)nn2)cc1` [2-{4-[3-(2-amino-1H-imidazol-4-yl)-propyl]-[1,2,3]triazol-1-yl}-N-(4-methoxy-phenyl)-acetamide hydrochloride] has an inhibition at 100 µM (MRSA) of 41.1 ± 2%.
`COc1ccc(CCNC(=O)Cn2cc(CCCc3c[nH]c(N)n3)nn2)cc1` [2-{4-[3-(2-amino-1H-imidazol-4-yl)-propyl]-[1,2,3]triazol-1-yl}-N-[2-(4-methoxy-phenyl)-ethyl]-acetamide hydrochloride] gave an inhibition at 100 µM (MRSA) of 18.3 ± 5%.
Work on `Nc1nc(CCCc2cn(CC(=O)NCc3ccccc3)nn2)c[nH]1` [2-{4-[3-(2-amino-1H-imidazol-4-yl)-propyl]-[1,2,3]triazol-1-yl}-N-benzyl-acetamide hydrochloride] yielded an inhibition at 100 µM (MRSA) of 58.1 ± 2%.
`Nc1nc(CCCc2cn(CC(=O)NC3CCCCC3)nn2)c[nH]1` [2-{4-[3-(2-amino-1H-imidazol-4-yl)-propyl]-[1,2,3]triazol-1-yl}-N-cyclohexyl-acetamide hydrochloride] was tested, and the inhibition at 100 µM (MRSA) was 40.5 ± 4%.
Work on `Nc1nc(CCCc2cn(CC(=O)NC3CCCC3)nn2)c[nH]1` [2-{4-[3-(2-amino-1H-imidazol-4-yl)-propyl]-[1,2,3]triazol-1-yl}-N-cyclopentyl-acetamide hydrochloride] yielded an inhibition at 100 µM (MRSA) of 64 ± 4%.
Compound `CCCCCCNC(=O)Cn1cc(CCCc2c[nH]c(N)n2)nn1` [2-{4-[3-(2-amino-1H-imidazol-4-yl)-propyl]-[1,2,3]triazol-1-yl}-N-hexyl-acetamide hydrochloride] has an inhibition at 100 µM (MRSA) of 83.1 ± 16%.
In the case of `CC(C)NC(=O)Cn1cc(CCCc2c[nH]c(N)n2)nn1` [2-{4-[3-(2-amino-1H-imidazol-4-yl)-propyl]-[1,2,3]triazol-1-yl}-N-isopropyl-acetamide hydrochloride], the inhibition at 100 µM (MRSA) is reported as 36.4 ± 3%.
Work on `Nc1nc(CCCc2cn(CC(=O)Nc3ccccc3)nn2)c[nH]1` [2-{4-[3-(2-amino-1H-imidazol-4-yl)-propyl]-[1,2,3]triazol-1-yl}-N-phenyl-acetamide hydrochloride] yielded an inhibition at 100 µM (MRSA) of 41.9 ± 2%.
Compound `CC(C)(C)NC(=O)Cn1cc(CCCc2c[nH]c(N)n2)nn1` [2-{4-[3-(2-amino-1H-imidazol-4-yl)-propyl]-[1,2,3]triazol-1-yl}-N-tert-butyl-acetamide hydrochloride] has an inhibition at 100 µM (MRSA) of 28.2 ± 15%.
In the case of `C/C(=C\c1ccccc1)Cn1cc(CCc2c[nH]c(N)n2)nn1` [Compound 7, 4-{2-[1-(2-Methyl-3-phenyl-allyl)-1H-[1,2,3]triazol-4-yl]-ethyl}-1H-imidazol-2-ylamine hydrochloride], the IC50 (A. baumannii biofilms; Acinetobacter baumannii) is reported as 220 µM.
For `C/C(=C\c1ccccc1)Cn1cc(Cc2c[nH]c(N)n2)nn1` [Compound 8, 4-[1-(2-Methyl-3-phenyl-allyl)-1H [1,2,3]triazol-4-ylmethyl]-1H-imidazol-2-ylamine hydrochloride], the “inhibition of A. baumannii biofilm development” value (A. baumannii biofilms; (highest concentration tested)) was under 50%.
`C/C(=C\c1ccccc1)Cn1cc(CCCn2ccnn2)nn1` [Compound 9, 1-(2-Methyl-3-phenyl-allyl)-4-(3-[1,2,3]triazol-1-yl-propyl)-1H-[1,2,3]triazole] gave an inhibition at 800 µM (A. baumannii biofilms; Acinetobacter baumannii, at the highest concentration studied (800 μM), read-out: inhibition of A. baumannii biofilm development) of under 30%.
In the case of `C/C(=C\c1ccccc1)Cn1cc(CCCCc2cnc(N)[nH]2)nn1` [Compound 10, 4-{4-[1-(2-Methyl-3-phenyl-allyl)-1H-[1,2,3]triazol-4-yl]-butyl}-1H-imidazol-2-ylamine], the IC50 (A. baumannii biofilms; Acinetobacter baumannii) is reported as 2.8 µM, the IC50 [1] is reported as 15 µM and the IC50 ([2]; P. aeruginosa PA14) is reported as 4000 nM. It also gave an IC50 [3] of 23 µM, an IC50 [4] of 7000 nM and an EC50 [5] of 210 µM. The EC50 [6] was 81 µM, the EC50 [7] was 35 µM and the EC50 [8] was 59 µM. For the same compound, the EC50 [9] was 16 µM and the “bactericidal / microbicidal activity (colony counts and growth curves)” value [10] was “not due to bactericidal activity”.
In the case of `C/C(=C\c1ccccc1)Cn1cc(CCCCCc2c[nH]c(N)n2)nn1` [Compound 11, 4-{5-[1-(2-Methyl-3-phenyl-allyl)-1H-[1,2,3]triazol-4-yl]-pentyl}-1H-imidazol-2-ylamine hydrochloride], the IC50 (A. baumannii biofilms; Acinetobacter baumannii) is reported as 0.98 µM, the IC50 [1] is reported as 5.6 µM and the IC50 ([2]; PA14, value in nM) is reported as 530 nM. For the same compound, the IC50 [3] was 9.5 µM, the IC50 ([4]; S. aureus, value in nM) was 810 nM and the EC50 [5] was 120 µM. It also gave an EC50 [6] of 11 µM, an EC50 [7] of 22 µM and an EC50 [8] of 55 µM. For the same compound, the EC50 [9] was 2.6 µM and the “bactericidal / microbicidal activity (colony counts and growth curves)” value [10] was “not due to microbicidal activity”.
